T1: Aldh (CTN_1548) (Thermotoga neapolitana, UniProt B9K9U1)
T1 construct: full-length from genomic DNA, vector-encoded N-terminal residues, C-terminal His-tag kept; E. coli JM109, pHsh; heat treatment, Ni column
T1 sequence (B9K9U1 2-472): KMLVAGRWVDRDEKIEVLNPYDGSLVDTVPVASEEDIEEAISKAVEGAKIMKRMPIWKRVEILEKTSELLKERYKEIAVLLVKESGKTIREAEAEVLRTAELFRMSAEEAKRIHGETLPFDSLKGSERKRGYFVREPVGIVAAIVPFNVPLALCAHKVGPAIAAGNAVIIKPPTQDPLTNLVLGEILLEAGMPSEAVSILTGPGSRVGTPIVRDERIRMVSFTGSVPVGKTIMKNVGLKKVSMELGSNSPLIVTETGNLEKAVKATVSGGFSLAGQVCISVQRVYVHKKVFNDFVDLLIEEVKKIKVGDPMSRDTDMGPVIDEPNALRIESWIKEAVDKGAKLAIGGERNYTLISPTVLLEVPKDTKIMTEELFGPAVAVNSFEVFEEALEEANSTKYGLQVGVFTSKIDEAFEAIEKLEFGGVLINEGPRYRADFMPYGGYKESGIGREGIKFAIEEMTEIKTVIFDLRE

B1: Fe-AAdh (CTN_0580) (Thermotoga neapolitana DSM 4359) (protein)
chain: FKISCYLPTEIIFRVGAVDELEERAKKLGKKALIVTGRSSTKKTGLLQRVQDLLKKAGVESIVFDKIVPNPISDHVDEAAEIVRKEKIDFIVGLGGGSPIDSAKAISITAPNEGKFWDYVPVGGGKIPEKSIPVVAIPTTHGTGTEADPFAVITNPETKEKVGIGYRNTFPVLSLVDPEVMKTLPKDQTAYTSMDAFYHAIEAFLNVNANPYSDVLALDAMKRIVTYLPVAYENGEDMEARTNLAWASTEAGITETLTGVIANHALEHGLSGFYPEITHGLGLCITGPYLFEYIFDHAYERLAIVGREVFGVYETDDRKAGKLAIKKLRDFQEMFGLNKRLSELGVKEEDIPKMAETGYRILNGVVVVTPGNLTAKDMEEIFRRCY
notes: full-length from genomic DNA, start Met omitted in primer (vector-encoded N-terminal residues), C-terminal His-tag kept; E. coli JM109, pHsh; heat treatment, Ni column, anaerobic

How the values were obtained:
Aldh (CTN_1548) = biological target: T1, Aldh (CTN_1548); experiment: spectrophotometric NAD(P)H formation, […] nm; format: biochemical; settings: 20 mM acetaldehyde, 1 mM NAD(P)+, no CoASH, 85 °C, various pH
purified protein = substrate: CC(=O)SCCNC(=O)CCNC(=O)[C@H](O)C(C)(C)COP(=O)(O)OP(=O)(O)OC[C@H]1O[C@@H](n2cnc3c(N)ncnc32)[C@H](O)[C@@H]1OP(=O)(O)O; experiment: purified protein; format: biochemical, Thermotoga neapolitana; settings: 0.25 mM NADPH, pH 6.5, 80 °C, reduction to acetaldehyde

Molecule | spectrophotometric NAD(P)H formation, 340 nm (Aldh (CTN_1548)) | Km (purified protein) [µM]
CC=O [ac-ald] | exhibited only CoA-independent activity that oxidizes ac-ald to acetic acid | –
NC(=O)c1ccc[n+]([C@@H]2O[C@H](COP(=O)(O)OP(=O)(O)OC[C@H]3O[C@@H](n4cnc5c(N)ncnc54)[C@H](O)[C@@H]3O)[C@@H](O)[C@H]2O)c1 [NAD^+] | catalyzed the oxidation of aldehydes to acetic acid using either NAD^+ or NADP^+ as coenzyme | –
B1 | – | 1750

Source: PMC7806712, “A novel bifunctional aldehyde/alcohol dehydrogenase catalyzing reduction of acetyl-CoA to ethanol at temperatures up to 95 °C” (Scientific Reports, 2021)
